Entries after “also recorded” stand apart in the source; their conditions may differ. Read-outs that look alike come from different tables or passages of the source. One block for each compound: values may come before it.
Columns and labels:
[1] = system: primary polyclonal human Vγ9Vδ2 T cells; assay: TNFα release (cytokine release) assay; assay type: cell-based; details: for relative potency in words: TNFα release assay, comparison of the tested compounds
Procedure: Cells (primary polyclonal human Vγ9Vδ2 T cells which have been expanded in vitro and stored frozen at day 12-15 of expansion) are thawed and rinsed twice and centrifuged. Upon elimination of supernatant and resuspension of cells, the cells are incubated for 24 h at 37° C. in the presence of IL2 100 IU/ml (final concentration). The cells are washed and centrifuged, following which the supernatant is eliminated and the cells are resuspended and adjusted to the adequate final concentration. The cells are added to the wells of a 96-well plate.
To one row of wells is added a standard dilution series of (R,S)-3-(bromomethyl)-3-butanol-1-yl-diphosphate (R,S-BrHPP). Compounds to be tested, in this case (E)-4-hydroxy-3-methyl-2-butenyl pyrophosphate ((E)-HDMAPP) and the HAngelylPP and HTiglylPP compounds of the Angelyl/Tiglyl phosphoester series are added to experimental wells, after several dilutions.
Full plates are incubated 24 hours at 37° C. for stimulation of the γδ cells with the test compound and reference compounds, in this case HAngelylPP and HTiglylPP, (R,S)—BrHPP and (E) —HDMAPP, as further described below. After this time, 100 μl of culture supernatant is taken for TNFα dosage. Measurement of the released TNFα dosage is performed as described by the manufacturer's instruction in the TNFα enzyme immunoassay kit (ref. 11121, Immunotech—Beckman Coulter). OD at 405 nm is read, the OD being proportional to the concentration of released TNFα in the culture supernatant. The data are processed with the Excel software to compare concentration of test compound versus concentration of TNFα and for the calculation of the EC50 for each test compound.
The bioactivity of the compound HAngelylPP was assessed using a TNFα release assay as described above. Compounds (R,S)—BrHPP and (E)-HDMAPP were included for purpose of comparison. […] As will be appreciated, any other suitable assays such as cell amplification may be used in assessing compounds.

γδ T cells = details: reported at best (Wilhelm et al., 2003); cited from earlier work

EC50 ([1]; Homo sapiens, T-cell, TNFα release, 24 hours stimulation at 37° C., relative screening test (FIG. 3), read-out: in vitro EC50): 37.7 nM
EC50 ([1]; Homo sapiens, T-cell, prior assays with calibrated cells using a (R,S)-BrHPP-standard composition, read-out: EC50): ~15 nM
Compound: CC(O)(CBr)CCOP(=O)(O)OP(=O)(O)O (racemic) [(R,S)-BrHPP, (R,S)-3-(bromomethyl)-3-butanol-1-yl-diphosphate, reference compound]

Compound: NCCC(O)(P(=O)(O)O)P(=O)(O)O [pamidronate]
increase in γδ T cell count (γδ T cells): ≤ 2 fold

Compound: (E)-4-hydroxy-2-methylbut-2-enyl pyrophosphate [HTiglylPP]
relative potency in words [1]: highly potent
EC50 ([1]; TNFα release, 24 hours stimulation at 37° C., relative screening test (FIG. 3), read-out: in vitro EC50): 15 nM

Compound: (Z)-4-hydroxy-2-methylbut-2-enyl pyrophosphate [HAngelylPP]
relative potency in words [1]: highly potent; also recorded: the most potent compound of those tested

— patent US7683045B2, “Class of γδ T cells activators and use thereof” (Innate Pharma S.A., priority 2005, dated 2010)
